Source: patent US5552384A, “Antiherpes compositions and method of use” (priority 1990, dated 1996)
Where two headings read alike, the source gives them in different places. Square brackets hold non-standard residues; d marks the D form. Peptide text beside a SMILES is read from it. * marks the point of attachment. Asp(3,3-(CH2)4) = N[C@H](C(=O)O)C1(C(=O)O)CCCC1; Leu(γ-Me)ol = CC(C)(C)C[C@@H](CO)N*; Hydrocinnamoyl = O=C(CCc1ccccc1)*; Tle = CC(C)(C)[C@H](N)C(=O)O; NMeV = CN[C@H](C(=O)O)C(C)C; Pyrrolidide = C1CCN(*)C1

Experiments:
[1] = in vivo; cited from earlier work
HSV-2 = assay: microbe, parasite or virus in culture; assay type: cell-based, HSV-2 (strain HG-52)
Protocol: BHK-21/C13 cells (ATCC CCL 10) are incubated for two days in 150 cm^2 T-flasks (1.5×10^6 cells/flask) with alpha-MEM medium (Gibco Canada Inc., Burlington, Ontario, Canada) supplemented with 8% (v/v) fetal bovine serum (FBS, Gibco Canada Inc.). The cells are trypsinized and then transferred to fresh media in a 24 well plate to give 2.5×10^5 cells in 750 μL of media per well. The cells are incubated at 37° C. for a period of 6 hours to allow them to adhere to the plate. Thereafter, the cells are washed once with 500 μL of alpha-MEM supplemented with 0.5% (v/v) FBS and then incubated with 750 μL of the same media (low serum) for 3 days. After this period of serum starvation, the low serum medium is removed and the cells are incubated in 500 μL of BBMT for 2 to 3 hours. [BBMT medium is described by P. Brazeau et al., Proc. Natl. Acad. Sci. USA, 79, 7909 (1982).] Thereafter, the cells are infected with HSV-2 (multiplicity of infection=0.02 PFU/cell) in 100 μL of BBMT medium. (Note: The HSV-2 used was strain HG-52, see Y. Langelier and G. Buttin, J. Gen. Virol., 57, 21 (1981); the virus was stored at -80° C.) Following 1 hour of virus adsorption at 37° C., the media is removed and the cells are washed with BBMT (3×250 μL). The cells in each well are incubated with or without (control) appropriate concentrations of the test agent dissolved in 200 μL of BBMT medium. After 29 hours of incubation at 37° C., the infected cells are harvested by first freezing the plate at -80° C., followed by thawing. The cells in each well are scraped off the surface of the well with the help of the melting ice fragments. After complete thawing, the cell suspensions are collected and each well is rinsed with 150 μL of BBMT medium. The viral sample (suspension plus washing) is sonicated gently for 4 minutes at 4° C. Cell debris are removed by centrifugation (1000 times gravity for 10 minutes at 4° C.). The supernatant is collected and stored at -80° C. until determination of viral titer.
Viral titration was performed by a modification of the colorimetric assay method of M. Langlois et al., Journal of Biological Standardization, 14, 201 (1986).
More specifically, in a similar manner as described above, BHK-21/C13 cells are trypsinized and transferred to fresh media in a 96 well microtiter plate to give 20,000 cells in 100 μL of media per well. The cells in the prepared plate are incubated at 37° C. for 2 hours. During that time, the viral sample is thawed and sonicated gently for 15 seconds, and log dilutions of the sample are prepared (1/5 sequential: 50 μL of the sample plus 200 μL of BBMT medium, sequential dilutions being done with a multichannel pipette.
On completion of the above 2 hour incubation of the BHK-21/C13 cells, the media is replaced with alpha-MEM medium supplemented with 3% (v/v) FBS. The cells are now ready to be infected with the various sample dilutions of virus. Aliquots (50 μL) of the various dilutions are transferred into the appropriate wells of the plate. The resulting infected cells are incubated for 2 days at 37° C. Then 50 μL of a 0.15% (v/v) solution of neutral red dye in Hank's Balanced Salt Solution (pH 7.3, Gibco Canada Inc.) is added to each well. The prepared plate is incubated for 45 minutes at 37° C. Medium from each well is then aspirated and the cells are washed once with 200 μL of Hank's Balanced Salt Solution. After the wash, the dye is released from the cells by the addition of 100 μL of a 1:1 mixture of 0.1M Sorensen's citrate buffer (pH 4.2) and ethanol. [Sorensen's citrate buffer is prepared as follows: Firstly, a 0.1M disodium citrate solution is prepared by dissolving citric acid monohydrate (21 g) in 1N aqueous NaOH (200 mL) and adding sufficient filtered H2 O to make 1 L. Secondly, the 0.1M disodium citrate solution (61.2 mL) is mixed with 0.1N aqueous HCl (38.8 mL) and the pH of the resulting solution is adjusted to 4.2 if necessary.] […]

IC50 (HSV-2; Human alphaherpesvirus 2, BHK21 (C13), 29 h, agent alone, HSV-2 in BHK-21/C13 cells, 29 hours incubation, read-out: IC50, concentration causing 50% inhibition of virus replication) | IC50 (HSV-2; Human alphaherpesvirus 2, BHK21 (C13), +20 μM of peptide, HSV-2 in BHK-21/C13 cells, read-out: IC50 of acyclovir) | IC50 (HSV-2; Human alphaherpesvirus 2, BHK21 (C13), +30 μM of peptide, HSV-2 in BHK-21/C13 cells, read-out: IC50 of acyclovir) | IC50 (HSV-2; Human alphaherpesvirus 2, BHK21 (C13), +40 μM of peptide, HSV-2 in BHK-21/C13 cells, read-out: IC50 of acyclovir) | IC50 (HSV-2; Human alphaherpesvirus 2, BHK21 (C13), +50 μM of peptide, HSV-2 in BHK-21/C13 cells, read-out: IC50 of acyclovir) | Compound | side effects [1] | IC50 (HSV-2; 29 h)
1800 nM | 700 nM | 500 nM | 110 nM | 90 nM | Nc1nc2c(ncn2COCCO)c(=O)[nH]1 [acyclovir, 9-[(2-hydroxyethoxy)methyl]guanine] | skin rashes and renal impairment | –
– | – | – | – | – | CC(C)[C@@H](C(=O)N[C@H](C(=O)N[C@@H](CC(=O)N1CCCC1)C(=O)N[C@H](C(=O)N[C@H](CO)CC(C)(C)C)C1(C(=O)O)CCCC1)C(C)(C)C)N(C)C(=O)CCc1ccccc1 [peptide, PhCH2 CH2 CO--N-Me-Val-Tbg-Asp(pyrrolidino)-Asp(cyPn)-{(S)-NHCH[CH2 C(CH3)3 ]CH2 OH}] (Hydrocinnamoyl-[NMeV][Tle]D(Pyrrolidide)[Asp(3,3-(CH2)4)]-{Leu(γ-Me)ol}) | – | 80000 nM
